# Assay results as given in patent US20200163984A1, “USE OF ISOVALERYL SPIRAMYCIN I, II AND/OR III IN MANUFACTURING MEDICAMENT FOR TREATING AND/OR PREVENTING TUMOR, AND MEDICAMENT” (SHENYANG FUYANG PHARMACEUTICAL TECHNOLOGY CO., LTD., priority 2017, published 2020).
# Assays:
# [1] = Spleen index of A549 lung cancer tumor-bearing mice; conditions: n = 6
# [2] = test system: transplanted tumor of human large cell lung cancer H460 cells; assay: H460 transplanted tumor in nude mice
# Protocol: (§1) Then cell concentration was adjusted to 1×10^7/ml with matrigel, then each nude mouse was inoculated subcutaneously with 0.2 ml of cells at its right armpit and recorded as the first day of inoculation. When the tumor grows to be greater than or equal to 100 mm^3, the mice were randomly divided into 11 groups with 6 mice in each group: isovaleryl spiramycin I groups with doses of 25, 50 and 100 mg/kg, isovaleryl spiramycin II groups with doses of 25, 50 and 100 mg/kg, and isovaleryl spiramycin III groups with doses of 25, 50 and 100 mg/kg. Each group was continuously administered intragastrically for 30 days with a dose of 20 ml/kg. The mice were sacrificed the next day after drug withdrawal and the indicators were tested. The long diameter and short diameter of the tumor, and the body weight of each mouse were recorded every 3 days from drug administration to nude mouse sacrifice.
# (§2) The body weight of the nude mice and the long diameter (a) and short diameter (b) of the transplanted tumor were measured every 3 days, and the tumor volume (v), relative tumor volume (RTV) and relative tumor proliferation rate (T/C) are calculated respectively according to the following formulas, wherein V=a×b^2/2; RTV=V/V0 (V0 is the tumor volume before administration, V is the tumor volume before sacrifice), and T/C (%)=treatment group RTV/model control group RTV×100%.
# (§3) Each mouse was weighed and sacrificed. After the tumor was completely stripped off from the body of the mouse, the non-tumor tissues such as blood stains and fat were removed to weigh the tumor and calculate the tumor growth inhibition rate. The average tumor weight of each group of mice is used as an indicator of efficacy. Tumor growth inhibition rate (%)=(1−the average tumor weight of the treatment group/the average tumor weight of the model group)×100%.
# [3] = test system: transplanted tumor of human gastric adenocarcinoma cell SGC7901; assay: SGC7901 transplanted tumor in nude mice
# Protocol: as §1, with “group: a model group, a cyclophosphamide group,” for “group:”
# as §2, §3
# [4] = test system: transplanted tumor of human pancreatic cancer cell PANC-1; assay: PANC-1 transplanted tumor in nude mice; conditions: for Tumor Volume (mm3) (d 1): d1
# Protocol: as §1, with “group: a model group, a cyclophosphamide group,” for “group:”
# as §2, §3
# [5] = H460, 25 mg/kg (low dose) i.g. 30 days
# [6] = H460, 50 mg/kg (medium dose) i.g. 30 days
# [7] = H460, 100 mg/kg (high dose) i.g. 30 days
# [8] = SGC7901, 12.5 mg/kg (low dose) i.g. 30 days
# [9] = SGC7901, 25 mg/kg (medium dose) i.g. 30 days
# [10] = SGC7901, 50 mg/kg (high dose) i.g. 30 days
# [11] = PANC-1, 12.5 mg/kg (low dose) i.g. 30 days
# [12] = PANC-1, 25 mg/kg (medium dose) i.g. 30 days
# [13] = PANC-1, 50 mg/kg (high dose) i.g. 30 days
structure (smiles),measurement,setting,value
"COC1C(OC(C)=O)CC(=O)OC(C)CC=CC=CC(OC2CCC(N(C)C)C(C)O2)C(C)CC(CC=O)C1OC1OC(C)C(OC2CC(C)(O)C(OC(=O)CC(C)C)C(C)O2)C(N(C)C)C1O (stereo not drawn) [Isovaleryl spiramycin II, isovaleryl spiramycin II]",Spleen Index (%),[1]; dose 13 mg/kg,0.35 ± 0.06%
same,Spleen Index (%),[1]; dose 26 mg/kg,0.32 ± 0.09%
same,Spleen Index (%),[1]; dose 52 mg/kg,0.37 ± 0.06%
same,Inhibition Rate (tumor growth inhibition rate),[2]; [5],14.22%
same,Relative Tumor Proliferation Rate (T/C),[2]; [5],51.97%
same,Relative Tumor Volume (RTV),[2]; [5],5.46 ± 1.87
same,Tumor Volume (d 1),[2]; [5],147.44 ± 15.40 mm3
same,Tumor Volume (d 30),[2]; [5],804.17 ± 292.57 mm3
same,Tumor Weight,[2]; [5],1.48 ± 0.24 g
same,Inhibition Rate (tumor growth inhibition rate),[2]; [6],34.43%
same,Relative Tumor Proliferation Rate (T/C),[2]; [6],46.49%
same,Relative Tumor Volume (RTV),[2]; [6],4.88 ± 1.36
same,Tumor Volume (d 1),[2]; [6],146.77 ± 18.26 mm3
same,Tumor Volume (d 30),[2]; [6],700.40 ± 143.83 mm3
same,Tumor Weight,[2]; [6],1.13 ± 0.08 g
same,Inhibition Rate (tumor growth inhibition rate),[2]; [7],61.12%
same,Relative Tumor Proliferation Rate (T/C),[2]; [7],37.89%
same,Relative Tumor Volume (RTV),[2]; [7],3.98 ± 1.10
same,Tumor Volume (d 1),[2]; [7],149.76 ± 13.12 mm3
same,Tumor Volume (d 30),[2]; [7],604.38 ± 195.98 mm3
same,Tumor Weight,[2]; [7],0.67 ± 0.20 g
same,tumor volume and relative tumor volume compared with the model group,"[2]; H460, low, medium and high doses, P<0.05",significantly lower
same,mouse weight compared with the model group,"[2]; mouse, in vivo",no significant changes
same,Inhibition Rate (tumor growth inhibition rate),[3]; [8],24.44%
same,Relative Tumor Proliferation Rate (T/C),[3]; [8],70.48%
same,Relative Tumor Volume (RTV),[3]; [8],7.90 ± 6.97
same,Tumor Volume (d 1),[3]; [8],134.33 ± 57.77 mm3
same,Tumor Volume (d 30),[3]; [8],1029.72 ± 818.01 mm3
same,Tumor Weight,[3]; [8],1.19 ± 0.62 g
same,Inhibition Rate (tumor growth inhibition rate),[3]; [9],41.76%
same,Relative Tumor Proliferation Rate (T/C),[3]; [9],51.42%
same,Relative Tumor Volume (RTV),[3]; [9],6.88 ± 5.66
same,Tumor Volume (d 1),[3]; [9],195.76 ± 76.95 mm3
same,Tumor Volume (d 30),[3]; [9],1094.82 ± 687.01 mm3
same,Tumor Weight,[3]; [9],0.91 ± 0.53 g
same,Inhibition Rate (tumor growth inhibition rate),[3]; [10],70.24%
same,Relative Tumor Proliferation Rate (T/C),[3]; [10],36.95%
same,Relative Tumor Volume (RTV),[3]; [10],6.90 ± 7.37
same,Tumor Volume (d 1),[3]; [10],143.85 ± 16.25 mm3
same,Tumor Volume (d 30),[3]; [10],577.98 ± 411.47 mm3
same,Tumor Weight,[3]; [10],0.47 ± 0.42 g
same,tumor volume and relative tumor volume compared with the model group,"[3]; SGC7901, low, medium and high doses, P<0.05",significantly lower
same,mouse weight compared with the model group,"[3]; mouse, in vivo",no significant changes
same,Inhibition Rate (tumor growth inhibition rate),[4]; [11],20.55%
same,Tumor Weight,[4]; [11],2.16 ± 0.51 g
same,Inhibition Rate (tumor growth inhibition rate),[4]; [12],41.72%
same,Tumor Weight,[4]; [12],1.58 ± 0.51 g
same,Inhibition Rate (tumor growth inhibition rate),[4]; [13],56.81%
same,Tumor Weight,[4]; [13],1.17 ± 0.47 g
same,Relative Tumor Proliferation Rate (T/C),"[4]; PANC-1, high dose i.g. 30 days",44.44%
same,Relative Tumor Proliferation Rate (T/C),"[4]; PANC-1, low dose i.g. 30 days",79.23%
same,tumor volume and relative tumor volume compared with the model group,"[4]; PANC-1, low, medium and high doses, P<0.05",significantly lower
same,Relative Tumor Proliferation Rate (T/C),"[4]; PANC-1, medium dose i.g. 30 days",60.58%
same,Relative Tumor Proliferation Rate (T/C),"[4]; PANC-1 nude mice, 12.5 mg/kg",79.23%
same,Relative Tumor Volume (RTV),"[4]; PANC-1 nude mice, 12.5 mg/kg",13.87 ± 1.53
same,Tumor Volume (mm3) (d 1),"[4]; PANC-1 nude mice, 12.5 mg/kg",104.64 ± 10.69 mm3
same,Tumor Volume (mm3) (d30),"[4]; PANC-1 nude mice, 12.5 mg/kg",1450.36 ± 218.20 mm3
same,Relative Tumor Proliferation Rate (T/C),"[4]; PANC-1 nude mice, 25 mg/kg",60.58%
same,Relative Tumor Volume (RTV),"[4]; PANC-1 nude mice, 25 mg/kg",10.60 ± 1.10
same,Tumor Volume (mm3) (d 1),"[4]; PANC-1 nude mice, 25 mg/kg",105.81 ± 11.20 mm3
same,Tumor Volume (mm3) (d30),"[4]; PANC-1 nude mice, 25 mg/kg",1113.42 ± 71.14 mm3
same,Relative Tumor Proliferation Rate (T/C),"[4]; PANC-1 nude mice, 50 mg/kg",44.45%
same,Relative Tumor Volume (RTV),"[4]; PANC-1 nude mice, 50 mg/kg",7.78 ± 1.71
same,Tumor Volume (mm3) (d 1),"[4]; PANC-1 nude mice, 50 mg/kg",119.69 ± 14.63 mm3
same,Tumor Volume (mm3) (d30),"[4]; PANC-1 nude mice, 50 mg/kg",914.69 ± 130.26 mm3
same,mouse weight compared with the model group,"[4]; mouse, in vivo",no significant changes
